In ChEMBL document CHEMBL4041541, “Solvent free, catalyst free, microwave or grinding assisted synthesis of bis-cyclic imide derivatives and their evaluation for anticancer activity” (Bioorg Med Chem Lett, 2017):

Tests used:
HepG2 [1] = assay: Growth inhibition of human HepG2 cells at 1 x 10^-5 M after 24 hrs by MTT assay relative to control; format: functional; settings: HepG2, 24 h, read-out: GI
[2] = Selectivity index, ratio of IC50 for HEK293T cells to IC50 for human T47D cells; format: functional
NCI-H522 [3] = assay: Growth inhibition of human NCI-H522 cells at 1 x 10^-5 M after 24 hrs by MTT assay relative to control; format: functional; settings: NCI-H522, 24 h, read-out: GI
[4] = Selectivity index, ratio of IC50 for HEK293T cells to IC50 for human HepG2 cells; format: functional
[5] = Selectivity index, ratio of IC50 for HEK293T cells to IC50 for human NCI-H522 cells; format: functional
[6] = Selectivity index, ratio of IC50 for HEK293T cells to IC50 for human PA1 cells; format: functional
HEK-293T = assay: Growth inhibition of HEK293T cells after 24 hrs by MTT assay; format: cell-based; settings: Homo sapiens
PA-1 [7] = assay: Growth inhibition of human PA1 cells at 1 x 10^-5 M after 24 hrs by MTT assay relative to control; format: functional; settings: PA-1, 24 h, read-out: GI
T47D [8] = assay: Growth inhibition of human T47D cells after 24 hrs by MTT assay; format: functional, cell-based
T47D [9] = assay: Growth inhibition of human T47D cells at 1 x 10^-5 M after 24 hrs by MTT assay relative to control; format: functional; settings: read-out: GI
NCI-H522 [10] = assay: Growth inhibition of human NCI-H522 cells after 24 hrs by MTT assay; format: functional, cell-based; settings: NCI-H522, 24 h
[11] = Selectivity index, ratio of IC50 for HEK293T cells to IC50 for human HCT15 cells; format: functional
HCT-15 [12] = assay: Growth inhibition of human HCT15 cells after 24 hrs by MTT assay; format: functional, cell-based; settings: HCT-15, 24 h
PA-1 [13] = assay: Growth inhibition of human PA1 cells after 24 hrs by MTT assay; format: functional, cell-based; settings: PA-1, 24 h
HCT-15 [14] = assay: Growth inhibition of human HCT15 cells at 1 x 10^-5 M after 24 hrs by MTT assay relative to control; format: functional; settings: HCT-15, 24 h, read-out: GI
HepG2 [15] = assay: Growth inhibition of human HepG2 cells after 24 hrs by MTT assay; format: functional, cell-based; settings: HepG2, 24 h

| IC50 (T47D [8]) [µM] | IC50 (NCI-H522 [10]) [µM] | IC50 (HCT-15 [12]) [µM] | IC50 (HepG2 [15]) [µM] | Structure (SMILES) | inhibition of growth at 10 µM (HepG2 [1]) [%] | Ratio IC50 [2] | inhibition of growth at 10 µM (NCI-H522 [3]) [%] | Ratio IC50 [4] | Ratio IC50 [5] | Ratio IC50 [6] | IC50 (HEK-293T) [µM] | inhibition of growth at 10 µM (PA-1 [7]) [%] | inhibition of growth at 10 µM (T47D [9]) [%] | Ratio IC50 [11] | IC50 (PA-1 [13]) [µM] | inhibition of growth at 10 µM (HCT-15 [14]) [%] |
| --- | --- | --- | --- | --- | --- | --- | --- | --- | --- | --- | --- | --- | --- | --- | --- | --- |
| 31.1 | 37.1 | 14.4 | 18.3 | O=C1C2CC=CCC2C(=O)N1c1ccc(S(=O)(=O)c2ccc(N3C(=O)C4CC=CCC4C3=O)cc2)cc1 (stereo not drawn) | 19 | 2.5 - 4.5 | 56 | 2.5 - 4.5 | 2.5 - 4.5 | 2.5 - 4.5 | 42.2 | 41 | 41 | 2.5 - 4.5 | 32.1 | 51 |
| 14.5 | 38 | 21.1 | 17.3 | O=C1C2CC=CCC2C(=O)N1CCOCCOCCN1C(=O)C2CC=CCC2C1=O (stereo not drawn) | 53 | 2.5 - 4.5 | 59 | 2.5 - 4.5 | 2.5 - 4.5 | 2.5 - 4.5 | 44.2 | 31 | 51 | 2.5 - 4.5 | 18.8 | 45 |
| 12.7 | 19.6 | 63.3 | 17.1 | O=C1C2CCCCC2C(=O)N1c1ccc(S(=O)(=O)c2ccc(N3C(=O)C4CCCCC4C3=O)cc2)cc1 (stereo not drawn) | 57 | 2.5 - 4.5 | 49 | 2.5 - 4.5 | 2.5 - 4.5 | 2.5 - 4.5 | 43.6 | 36 | 51 | 2.5 - 4.5 | 22.6 | 65 |
